“And” between values parts separate entries of the source, which are not always exact repeats. Equal entries are not always repeated. Where two headings read alike, the source gives them in different places.
Columns and labels:
streptavidin (SAV) = target: T1, streptavidin (SAV) (Streptomyces avidinii, UniProt P22629); experiment: Stopped-flow association kinetics of dye-labeled biotin probes binding to streptavidin (F(t), rF(t); Arrhenius plots/global fitting); design: kcal/mol (from Arrhenius slope) / Eon for BFl: unit not given here; conditions: for halftime of association, F¯(t): probe 20 nM
T1 construct: purchased Sigma Aldrich (St. Louis, MO)
Protocol: These reactions were carried out in a buffered solution of 10 mM Tris-HCl, 100 mM KCl, 2.5 mM MgCl2 and 1 mM CaCl2 at pH 8 and only AV-BcO reactions included pH 9 and 10. […] The deglycosylation of AV (for comparative association reactions) was carried out using the provided standard protocol with endoglycosidase H [47], both with and without incubation of a denaturant solution (2% SDS and 1M 2-mercaptoethanol).
The reactions were collected with the SF instrument, described previously. […] The AC(t) and DC(t) data were baseline corrected before obtaining the signal ratio (Eq 4) as a function of time (ρt).
The constant AGain is the instrumental amplitude gain and was evaluated by solving ρ(t) using the known steady state anisotropy (rss) of the complexes which is equivalent to the r(t) at t = ∞; and H, obtained from the equivalent grating factor (G) for the filters and photo multiplier tubes in the SF. For the probes used in here G was 0.82 and H = (1-G)/(1+G) = 0.099. Knowing Again and H, the AC(t) and DC(t) signals can be solved for r(t) and F(t) (Eqs 4 and 5) and the normalized fluorescence, F¯(t) , and corrected fluorescence anisotropy, rF¯(t), were obtained when F¯(0) and rF¯(0) were scaled to 1 at t = 0.
The F¯(t) (Eq 6) is equivalent to (I||) + 2 (I⊥) and proportional to quantum yield (QYi), molar absorptivity (εi) and to the formation or disappearance of the emitting species Xi(t); and rF¯(t) including the steady state anisotropies (rss) of each fluorescent species (Eq 7).
The possible reaction models were discriminated by the squared residuals of the observed and calculated association traces of both fluorescence and anisotropy fluorescence signals, F¯(t) and rF¯(t) , respectively.

[1] = Steady-state anisotropy (rss), unbound probe; type: physicochemical
Protocol: (§1) The lifetimes (τ), steady state anisotropies (rss), time-resolved anisotropies (rt) and quantum yields (QY) of the complexes (at 20 ± 0.1°C and pH 8) were collected with a dye-labeled B7 probe concentration of 20–40 nM and 1040–2080 nM of either protein (AV or SAV) to ensure that only one binding site in the tetramer was filled with a ligand (AB1 filling model).
The rss measurements were collected using the Giblin-Parkhurst modification of the Wampler-Desa method as described previously. The fluorescence signal was detected in a model A-1010 Alphascan fluorimeter (Photon Technologies, Inc., Birmingham, NJ) equipped with an R928 PMT (Hamamatsu, Bridgewater, NJ). The excitation was provided by an Ar^+ ion laser (Coherent Innova 70–4 Argon, Santa Clara, CA) at 488 nm and 5–10 mW of power incident on the sample. […] The fluorimeter G factor was determined using a film polarizer and analyzer with an excitation at 488 nm provided by a xenon arc lamp (model A1010, Photon Technologies Inc, Princeton, NJ). The dissociation reactions of dye-labeled B7 and protein complexes were monitored by fluorescence changes and were also collected in the fluorimeter described above.

avidin (AV) = target: T2, avidin (AV) (Gallus gallus, UniProt P02701); experiment: Time-resolved anisotropy, cone angle, AV complex; type: physicochemical
T2 construct: purchased Calbiochem (La Jolla, CA)
Protocol: as §1
The lifetimes were collected in a FluoTime100 fluorescence spectrometer (PicoQuant, GmbH, Berlin, Germany) with the excitation light source provided by a picosecond pulsed diode laser (PicoQuant, GmbH, Berlin, Germany) at 470 nm and 20 MHz. The emission was collected at 520 nm through a non-fluorescing 520 nm interference filter (Oriel Corp., Stratford, CT) followed by a liquid filter of 1cm path length containing 24 mM acetate buffered dichromate at pH 4, between the sample and detector to eliminate traces of excitation light. The fluorescence decays were fit by a nonlinear least-squares minimization based on the Marquardt algorithm embedded in the Fluofit software (PicoQuant GmbH). Twenty-eight decays were collected per sample, the decays were grouped in four sets, consisting of seven sample decays and one Instrument Response Function, IRF, for deconvolution proposes. The decay sets were globally fitted to mono- or bi-exponential decay models that were discriminated using the statistical parameter χ^2. The rt data were acquired with the fluorimeter described above equipped with a polarizer and an analyzer to acquire the parallel VV(t) and perpendicular VH(t) decays. The PicoQuant G factor was calculated according to: G = ∫HV(t)dt/∫HH(t)dt, where HV(t) and HH(t) were the decays collected with the emission polarizer selecting vertical and horizontal E-vector passing orientations, respectively, and the excitation polarizer set at horizontally position.
The r¯t values were calculated according to Eq 11 where the pre-exponential “f” corresponds to the slow phase that derives from the lifetime of the global motion (τG) which was fitted within a range of expected correlation time for the complex size; consequently, facilitating resolution of the fast correlation lifetime (τp) and the corresponding pre-exponential (1-f). r¯(t)=(1−f)∙exp(−t/τp)+f∙exp(−t/τG) (11) The f parameter was constrained to the observed rss (Eq 12) where F^(t) (Eq 13) is normalized (α1 + α2 = 1) and derived from the observed fluorescence decays of the complex. rss=0.4∫r¯(t)∙F^(t)dt (12) Where F^(t)=α1exp(−t/τ1)+α2exp(−t/τ2)/α1τ1+α2τ2 (13)
In a simple model, the transition moment is assumed to wobble within a cone of semi-apical angle Ω [59], where the cone axis is normal to the surface of a sphere that corresponds to the macromolecule. The angle Ω is calculated from Eq 14.

[2] = SAV, average over the dye-labeled B7 probes, used for SAV-B7
[3] = SAV, average over the dye-labeled B7 probes, used for SAV-B7, listed as B

T1 sequence (P22629 25-183): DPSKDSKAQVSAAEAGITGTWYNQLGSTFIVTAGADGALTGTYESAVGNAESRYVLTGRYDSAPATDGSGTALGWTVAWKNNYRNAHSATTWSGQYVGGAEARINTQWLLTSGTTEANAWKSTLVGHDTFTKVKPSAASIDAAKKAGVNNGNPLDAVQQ
T2 sequence (P02701 25-152): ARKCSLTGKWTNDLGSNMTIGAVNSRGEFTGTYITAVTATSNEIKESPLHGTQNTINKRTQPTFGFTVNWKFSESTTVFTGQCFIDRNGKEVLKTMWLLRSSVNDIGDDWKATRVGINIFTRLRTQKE

Structure (SMILES): O=C(CCCC[C@@H]1SC[C@@H]2NC(=O)N[C@@H]21)NCCNC(=O)c1ccc(-c2c3ccc(=O)cc-3oc3cc(O)ccc23)c(C(=O)O)c1 [BFl, Biotin-4-fluorescein]
- kon binding to SAV, fold faster than binding to AV (streptavidin (SAV); 25°C): 4 X
- Eon for BFl (streptavidin (SAV); Enthalpy block, SAV): 6.0
- kon by corrected fluorescence anisotropy rF(t) (streptavidin (SAV); SAV-BFl, 10 °C, 200 nM): 3.75e+07 ± 1.2e+06 M⁻¹ s⁻¹
- kon (streptavidin (SAV); SAV-BFl, 10 °C, 200 nM, read-out: kon by corrected fluorescence anisotropy rF(t)): 3.75e+07 M⁻¹ s⁻¹
- kon (streptavidin (SAV); SAV-BFl, 10 °C, 200 nM, read-out: kon by fluorescence change F(t)): 3.73e+07 M⁻¹ s⁻¹
- kon (streptavidin (SAV); SAV-BFl, 10 °C, read-out: kon, Average): 3.74e+07 M⁻¹ s⁻¹
- kon by corrected fluorescence anisotropy rF(t) (streptavidin (SAV); SAV-BFl, 15 °C, 200 nM): 4.5e+07 ± 1e+06 M⁻¹ s⁻¹
- kon (streptavidin (SAV); SAV-BFl, 15 °C, 200 nM, read-out: kon by corrected fluorescence anisotropy rF(t)): 4.5e+07 M⁻¹ s⁻¹
- kon (streptavidin (SAV); SAV-BFl, 15 °C, 200 nM, read-out: kon by fluorescence change F(t)): 4.48e+07 M⁻¹ s⁻¹
- kon by corrected fluorescence anisotropy rF(t) (streptavidin (SAV); SAV-BFl, 15 °C, 400 nM): 4.5e+07 ± 1.7e+06 M⁻¹ s⁻¹
- kon (streptavidin (SAV); SAV-BFl, 15 °C, 400 nM, read-out: kon by corrected fluorescence anisotropy rF(t)): 4.5e+07 M⁻¹ s⁻¹
- kon (streptavidin (SAV); SAV-BFl, 15 °C, 400 nM, read-out: kon by fluorescence change F(t)): 4.59e+07 M⁻¹ s⁻¹
- kon by corrected fluorescence anisotropy rF(t) (streptavidin (SAV); SAV-BFl, 15 °C, 800 nM): 4.38e+07 ± 1.9e+06 M⁻¹ s⁻¹
- kon (streptavidin (SAV); SAV-BFl, 15 °C, 800 nM, read-out: kon by corrected fluorescence anisotropy rF(t)): 4.38e+07 M⁻¹ s⁻¹
- kon (streptavidin (SAV); SAV-BFl, 15 °C, 800 nM, read-out: kon by fluorescence change F(t)): 4.2e+07 M⁻¹ s⁻¹
- kon (streptavidin (SAV); SAV-BFl, 15 °C, read-out: kon, Average): 4.44e+07 M⁻¹ s⁻¹
- kon by corrected fluorescence anisotropy rF(t) (streptavidin (SAV); SAV-BFl, 20 °C, 200 nM): 6.25e+07 ± 1.6e+06 M⁻¹ s⁻¹
- kon (streptavidin (SAV); SAV-BFl, 20 °C, 200 nM, read-out: kon by corrected fluorescence anisotropy rF(t)): 6.25e+07 M⁻¹ s⁻¹
- kon (streptavidin (SAV); SAV-BFl, 20 °C, 200 nM, read-out: kon by fluorescence change F(t)): 6.23e+07 M⁻¹ s⁻¹
- kon (streptavidin (SAV); SAV-BFl, 20 °C, read-out: kon, Average): 6.24e+07 M⁻¹ s⁻¹
- kon by corrected fluorescence anisotropy rF(t) (streptavidin (SAV); SAV-BFl, 25 °C, 200 nM): 7.4e+07 ± 2e+06 M⁻¹ s⁻¹
- kon (streptavidin (SAV); SAV-BFl, 25 °C, 200 nM, read-out: kon by corrected fluorescence anisotropy rF(t)): 7.4e+07 M⁻¹ s⁻¹
- kon (streptavidin (SAV); SAV-BFl, 25 °C, 200 nM, read-out: kon by fluorescence change F(t)): 7.54e+07 M⁻¹ s⁻¹
- kon (streptavidin (SAV); SAV-BFl, 25 °C, read-out: kon, Average): 7.47e+07 M⁻¹ s⁻¹
- kon (streptavidin (SAV); SAV, 4°C, calculated by an Arrhenius plot, read-out: kon): 2.6e+07 M⁻¹ s⁻¹
- ln(k) (streptavidin (SAV); SAV, 10 (283.15 K)): 17.6
- k(average) (streptavidin (SAV); SAV, 10 (283.15 K), k (full value)): 4.55E+07
- k(average) (streptavidin (SAV); SAV, 10 (283.15 K), k (scaled)): 45.5
- ln(k) (streptavidin (SAV); SAV, 15 (288.15 K)): 17.8
- k(average) (streptavidin (SAV); SAV, 15 (288.15 K), k (full value)): 5.31E+07
- k(average) (streptavidin (SAV); SAV, 15 (288.15 K), k (scaled)): 53.1
- ln(k) (streptavidin (SAV); SAV, 20 (293.15 K)): 17.9
- k(average) (streptavidin (SAV); SAV, 20 (293.15 K), k (scaled)): 58.6
- ln(k) (streptavidin (SAV); SAV, 25 (298.15 K)): 18.1
- k(average) (streptavidin (SAV); SAV, 25 (298.15 K), k (full value)): 7.47E+07
- k(average) (streptavidin (SAV); SAV, 25 (298.15 K), k (scaled)): 74.7
- kon (streptavidin (SAV); SAV, 25°C and pH 8): 7.5 ± 0.2 x 10^7 M^-1s^-1
- Ea^Forward (streptavidin (SAV); SAV, pH 8): 5.3 ± 0.3 kcal/mol
- ΔG^ǂ (streptavidin (SAV); SAV, pH 8, forward): 3.3 ± 0.6 kcal/mol
- ΔS^ǂ (streptavidin (SAV); SAV, pH 8, forward): 6.6 ± 0.5 cal/°K·mol
- kcal/mol (from Arrhenius slope) (streptavidin (SAV); SAV, ph8): -8101
- slope (Arrhenius linear fit) (streptavidin (SAV); SAV, ph8): -4076.8
- kon (streptavidin (SAV); pH 8, SAV, 25°C and pH 8): ~7.5e+07 M⁻¹ s⁻¹
- kon (streptavidin (SAV); pH 8, SAV, pH 8, 10°C, read-out: kon): 4.54e+07 ± 1e+06 M⁻¹ s⁻¹
- kon (streptavidin (SAV); pH 8, SAV, pH 8, 15°C, read-out: kon): 5.31e+07 ± 2e+06 M⁻¹ s⁻¹
- kon (streptavidin (SAV); pH 8, SAV, pH 8, 20°C, read-out: kon): 5.86e+07 ± 1.6e+06 M⁻¹ s⁻¹
- kon (streptavidin (SAV); pH 8, SAV, pH 8, 25°C, read-out: kon): 7.47e+07 ± 2e+06 M⁻¹ s⁻¹
- halftime of association, F¯(t) (streptavidin (SAV); SAV 200 nM, pH 8, 20°C): 77.3 ms
- halftime of association, F¯(t) (streptavidin (SAV); SAV 400 nM, pH 8, 20°C): 37.7 ms
- halftime of association, F¯(t) (streptavidin (SAV); SAV 800 nM, pH 8, 20°C): 20.6 ms
- rss, Unbound [1]: 0.021
- Cone Angle Ω (avidin (AV); AV complex (AB1), 20°C): 51 ± 2 degrees
- W (avidin (AV); complex with AV): 51

Structure (SMILES): O=C(O)CCCC[C@@H]1SC[C@@H]2NC(=O)N[C@@H]21 [B7, d-biotin]
- Eaon + (-∆H°) (streptavidin (SAV); SAV-B): 30.9 ± 2.5 kcal/mol
- ∆G°ǂ + (-∆G°) (streptavidin (SAV); SAV-B): 22.2 ± 1.0 kcal/mol
- ∆S°ǂ + (-∆S°) (streptavidin (SAV); SAV-B): 27.7 ± 2.0 cal/mol°K
- ΔE = Ea^Forward-Ea^Backward (streptavidin (SAV); SAV-B7, column 3 minus 4): -23.4 ± 4.0 kcal/mol
- ΔG° ^ǂ, Forward -ΔG° ^ǂ, Backward (streptavidin (SAV); SAV-B7, column 3 minus 4): -19.6 ± 2.5 kcal/mol
- ΔS° ^ǂ, Forward -ΔS° ^ǂ, Backward (streptavidin (SAV); SAV-B7, column 3 minus 4): -18.1 ± 4.5 cal/mol°K
- fold slower than 10^9 M^-1s^-1 (diffusion limited) (streptavidin (SAV); SAV, 25°C): 13-400 X
- ΔG^ǂ, Forward (streptavidin (SAV); [2]): 4.0 ± 0.6 kcal/mol and 4.0 kcal/mol
- ΔS^ǂ, Forward (streptavidin (SAV); [2]): 6.7 ± 1.6 cal/°K·mol and 6.7 cal/°K·mol
- Ea^Forward (streptavidin (SAV); [3]): 6.0 ± 1.0 kcal/mol
- ΔS^ǂ, Forward (streptavidin (SAV); [3]): 6.7 ± 2.0 cal/°K·mol
